The results in this text go back to ChEMBL document CHEMBL1133212, “An enantioselective synthesis and biobehavioral evaluation of 7-fluoro-3-(p-fluorophenyl)-2-propyltropanes” (Bioorg Med Chem Lett, 2000).

The subject of one experiment is Rattus norvegicus. Briefly: Percent reduction in cocaine induced reward enhancement after administration of compound at 5 mg/kg or 10 mg/kg combined with 10 mg/kg of cocaine intraperitoneally in rats. Type of experiment: functional.
Experiment [1] concerns the target Norepinephrine transporter (Rattus norvegicus, UniProt Q9WTR4). Briefly: Compound was tested for its ability to inhibit high-affinity uptake of [3H]NE into parietal and occipital cortex in rat.
Experiment [2] has as its target Sodium-dependent serotonin transporter (Rattus norvegicus, UniProt P31652). Briefly: Compound was tested for its ability to inhibit high affinity uptake of [3H]5-HT into mid brain nerve endings (synaptosomes) in rat. Type of experiment: subcellular.
For experiment [3], the target named is T1, Sodium-dependent dopamine transporter (Rattus norvegicus, UniProt P23977). The experiment can be described thus: Compound was tested for its ability to inhibit high affinity uptake of [3H]DA into rat striatal membrane. Further details: species or system Striatum.
Experiment [4] addresses T1, Sodium-dependent dopamine transporter. Briefly: ability to displace [3H]- Mazindol binding to cocaine binding sites on Dopamine transporter of rat striatal membranes. Also noted: species or system Striatum, Membrane.
The target is the same in experiment [5]. The experiment can be described thus: Binding affinity to a single, sodium-dependent site on the Dopamine transporter in rat striatal membranes. Type of experiment: cell membranes, Striatum, Membrane.

Chain of Norepinephrine transporter (Q9WTR4 whole entry): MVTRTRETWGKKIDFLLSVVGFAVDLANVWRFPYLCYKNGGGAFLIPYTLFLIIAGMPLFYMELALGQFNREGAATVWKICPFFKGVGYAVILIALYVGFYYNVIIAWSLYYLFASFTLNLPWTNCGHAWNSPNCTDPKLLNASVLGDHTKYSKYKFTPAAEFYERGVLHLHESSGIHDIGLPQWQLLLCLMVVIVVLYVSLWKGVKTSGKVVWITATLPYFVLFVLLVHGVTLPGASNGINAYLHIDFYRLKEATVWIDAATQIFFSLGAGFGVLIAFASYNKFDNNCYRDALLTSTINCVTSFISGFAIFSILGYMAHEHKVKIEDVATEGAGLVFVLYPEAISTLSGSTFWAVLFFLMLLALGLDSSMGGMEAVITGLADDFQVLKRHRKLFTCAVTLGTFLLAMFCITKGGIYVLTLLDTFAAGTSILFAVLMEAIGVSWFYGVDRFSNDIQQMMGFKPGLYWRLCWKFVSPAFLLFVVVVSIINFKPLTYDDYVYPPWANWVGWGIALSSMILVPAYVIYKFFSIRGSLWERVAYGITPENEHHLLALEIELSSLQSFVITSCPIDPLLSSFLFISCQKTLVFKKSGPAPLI
Chain of Sodium-dependent serotonin transporter (P31652 whole entry): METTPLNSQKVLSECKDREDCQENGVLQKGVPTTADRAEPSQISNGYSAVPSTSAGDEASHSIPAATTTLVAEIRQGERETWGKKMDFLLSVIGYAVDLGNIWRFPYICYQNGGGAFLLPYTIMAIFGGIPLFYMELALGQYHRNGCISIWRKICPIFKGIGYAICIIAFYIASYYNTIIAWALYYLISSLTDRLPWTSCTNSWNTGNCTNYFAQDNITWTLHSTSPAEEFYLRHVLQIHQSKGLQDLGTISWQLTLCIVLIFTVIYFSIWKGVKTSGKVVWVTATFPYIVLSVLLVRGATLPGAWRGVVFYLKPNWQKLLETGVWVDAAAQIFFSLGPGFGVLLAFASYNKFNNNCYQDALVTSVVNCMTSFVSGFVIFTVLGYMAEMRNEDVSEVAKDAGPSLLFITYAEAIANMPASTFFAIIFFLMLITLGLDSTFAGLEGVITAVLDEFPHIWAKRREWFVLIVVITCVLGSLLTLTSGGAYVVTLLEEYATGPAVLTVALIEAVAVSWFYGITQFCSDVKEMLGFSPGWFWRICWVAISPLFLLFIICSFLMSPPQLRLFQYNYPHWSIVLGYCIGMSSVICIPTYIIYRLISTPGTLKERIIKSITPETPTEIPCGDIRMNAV
T1 sequence (P23977 whole entry): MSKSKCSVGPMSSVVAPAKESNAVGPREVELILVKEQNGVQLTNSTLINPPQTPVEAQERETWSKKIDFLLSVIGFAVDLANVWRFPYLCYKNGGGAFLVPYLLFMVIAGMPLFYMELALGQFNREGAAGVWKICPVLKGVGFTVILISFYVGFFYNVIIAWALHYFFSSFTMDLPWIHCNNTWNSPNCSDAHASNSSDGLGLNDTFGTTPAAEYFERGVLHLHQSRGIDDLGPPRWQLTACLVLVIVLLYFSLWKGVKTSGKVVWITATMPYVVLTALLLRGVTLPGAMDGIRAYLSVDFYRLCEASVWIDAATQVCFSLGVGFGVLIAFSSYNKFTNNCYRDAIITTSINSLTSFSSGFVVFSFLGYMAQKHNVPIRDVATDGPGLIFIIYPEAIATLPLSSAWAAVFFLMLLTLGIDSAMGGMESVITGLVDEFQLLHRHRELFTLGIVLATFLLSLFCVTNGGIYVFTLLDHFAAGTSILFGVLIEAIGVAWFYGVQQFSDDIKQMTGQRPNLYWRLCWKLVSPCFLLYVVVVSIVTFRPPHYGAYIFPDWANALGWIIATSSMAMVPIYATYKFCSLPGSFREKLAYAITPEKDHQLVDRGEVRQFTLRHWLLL

In the case of `CCCC1C(c2ccc(F)cc2)CC2C[C@H](F)C1N2C` (stereo partly drawn), the Reduction in the experiment with Rattus norvegicus turned out to be 60%. In addition, the Ki (in general, a measure of affinity in units of concentration, obtained from inhibition or displacement) in experiment [1] amounted to 52 nM; in experiment [2] it was 561 nM; in experiment [3], 49 nM.

For `CCCC1C(c2ccc(F)cc2)CC2C[C@@H](F)C1N2C` (stereo partly drawn), the Ki in experiment [4] turned out to be 1150 nM; in experiment [1], 126 nM; in experiment [2] it was 1250 nM; in experiment [3], 304 nM.

As to `CCCC1C(c2ccc(F)cc2)CC2CC(F)(F)C1N2C` (stereo not drawn), the Ki in experiment [4] was 860 nM; in experiment [1], 3790 nM; in experiment [2] it was 7910 nM; in experiment [3], 1450 nM.

As to `OC1(c2ccc(Cl)cc2)c2ccccc2C2=NCCN21` (stereo not drawn) [MAZINDOL], in experiment [5], the Kd (as a rule, the constant that tells how readily two partners part at equilibrium) was 8.63 nM.
